Assay [1] concerns the target T1, menin/MLL (terbium chelate-labeled menin, FITC-MBM1 peptide) (Homo sapiens, UniProt O00255, T541A).
T1 construct: Menin (a.a 1-610-6xhis tag, 2.3 mg/mL in 20 mM Hepes)
T1 sequence (O00255 with tags, fused parts or gaps T541A): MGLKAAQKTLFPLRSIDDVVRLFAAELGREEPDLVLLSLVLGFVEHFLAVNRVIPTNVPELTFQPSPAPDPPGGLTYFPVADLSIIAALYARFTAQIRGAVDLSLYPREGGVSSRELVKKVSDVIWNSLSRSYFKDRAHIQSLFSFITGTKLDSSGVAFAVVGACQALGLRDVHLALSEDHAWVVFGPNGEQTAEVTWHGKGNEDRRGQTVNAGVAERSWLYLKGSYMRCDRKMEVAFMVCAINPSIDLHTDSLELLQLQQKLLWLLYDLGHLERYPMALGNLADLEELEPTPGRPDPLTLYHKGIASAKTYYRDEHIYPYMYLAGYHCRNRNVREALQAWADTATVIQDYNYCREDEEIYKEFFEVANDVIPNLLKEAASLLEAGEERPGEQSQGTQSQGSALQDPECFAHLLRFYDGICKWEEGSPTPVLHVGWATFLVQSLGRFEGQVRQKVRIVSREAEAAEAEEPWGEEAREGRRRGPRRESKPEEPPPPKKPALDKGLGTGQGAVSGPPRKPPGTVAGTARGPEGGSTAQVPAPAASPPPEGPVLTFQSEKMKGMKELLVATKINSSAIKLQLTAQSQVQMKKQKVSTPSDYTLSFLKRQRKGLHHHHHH
Put plainly: Menin/MLL homogenous time-resolved fluorescence (HTRF) assay. Type of assay: binding. Conditions: 30 min incubation. The gist of the method:
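Competition binding read by time-resolved FRET (FITC 520 nm over terbium 490 nm) after compound meets labeled menin 1-610-His […] for 30 min, then FITC-MBM1 (75 nM) for 15 min, ambient temperature, 0.5% DMSO. Eleven-point four-fold dilutions, usually starting at 10 μM, fitted to four-parameter curves for IC50.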
In general terms: In TR-FRET formats the signal depends on donor and acceptor labels being close together.

For a further assay, the system named is MEIS1 mRNA expression. As to the kind of experiment: MEIS1 mRNA expression assay (Quantigene Singleplex) in MOLM14 cells. Format: cell-based, human. The following applies: 48 hours incubation. The method in brief:
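Read-out: MEIS1 transcript counts, background-subtracted and divided by RPL28, expressed as fold change over DMSO-treated cells, then dose-response modelled for IC50. MOLM14 cells (3,750/well) received graded compound for 48 h before lysis and QuantiGene hybridization at 55 °C.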

These results are taken from patent publication US20230250096A1, “SUBSTITUTED PHENYL-1H-PYRROLO[2,3-c] PYRIDINE DERIVATIVES” (Janssen Pharmaceutica NV, priority 2021, published 2023).

One may read the IC50 as the point on the concentration scale where inhibition reaches its midpoint. Higher therefore signals lower potency.

Each structure is given as a SMILES string.

For the compound `CC(=O)N[C@H]1CC[C@H](CN2CCC(Cc3cn(-c4ccc(F)cc4C(=O)N(C)C(C)C)c4cncc(C)c34)C2)CC1` (single isomer, unassigned) [Compound 72], the IC50 in assay [1] came to 0.173 nM; with MEIS1 mRNA expression (Homo sapiens, MOLM-14, 48 h) it was 182 nM.
For `Cc1cncc2c1c(CC1CN(CC3CCOCC3)C1)cn2-c1ccc(F)cc1C(=O)N(C)C1(CO)CCC1` [Compound 276] the same measures were 0.532 nM and around 462 nM.
Taken in the same sequence, the figures for `Cc1cncc2c1c(CC1CN(CC3CCOCC3)C1)cn2-c1ccc(F)cc1C(=O)N(C)[C@H]1C[C@H](O)C1` [Compound 275] were 0.945 nM and above 1000 nM.
For `Cc1cncc2c1c(C=C1CCN(C)C1)cn2-c1ccc(F)cc1C(=O)N(C)C(C)C` (single isomer, unassigned) [Compound 524b] the same measures were 8.62 nM and 2120 nM.
For the compound `CC(=O)N[C@@H](C)CN1CC[C@H](Cc2cn(-c3ccc(F)cc3C(=O)N(C)C(C)C)c3cncc(C)c23)C1` (single isomer, unassigned) [Compound 119b], the half-maximal inhibitory concentration (IC50) in assay [1] is 0.569 nM; with MEIS1 mRNA expression (Homo sapiens, MOLM-14, 48 h), above 1000 nM.
Turning to `Cc1cncc2c1c(CC1CCN(CC3CCC(=O)NC3)CC1)cn2-c1ccc(F)cc1C(=O)N(C)C(C)C` (centres unmarked) [Compound 195], the half-maximal inhibitory concentration (IC50) in assay [1] worked out at 0.153 nM; in the assay on MEIS1 mRNA expression (Homo sapiens, MOLM-14, 48 h), 156 nM.
For the compound `CC(=O)N1CC(CN2CCC(Cc3cn(-c4ccc(F)cc4C(=O)N(C)C(C)C)c4cncc(C)c34)CC2)C1` [Compound 102], the IC50 was 3.02 nM in assay [1] and above 1000 nM in the assay with MEIS1 mRNA expression (Homo sapiens, MOLM-14, 48 h).
As for `Cc1cncc2c1c(C[C@@H]1CCN(CC3CCOCC3)C1)cn2-c1ccc(F)cc1C(=O)N1CC[C@@H](O)C1(C)C` (single isomer, unassigned) [Compound 364a], the IC50 worked out at 0.098 nM in assay [1] and 225 nM in the assay with MEIS1 mRNA expression (Homo sapiens, MOLM-14, 48 h).
Turning to `CNC(=O)[C@H]1CC[C@@H](CN2CC[C@H](Cc3cn(-c4ccc(F)cc4C(=O)N(C)C(C)C)c4cncc(C)c34)C2)CC1` [Compound 236], the IC50 in assay [1] was 0.086 nM; in the assay with MEIS1 mRNA expression (Homo sapiens, MOLM-14, 48 h), around 98.9 nM.
Taken in the same sequence, the figures for `Cc1cncc2c1c(CC1CCN(CC3CCOCC3)CC1)cn2-c1ccc(F)cc1C(=O)N(C)C(C)C` [Compound 109] were 0.304 nM and 53 nM.
As to `Cc1cncc2c1c(C[C@@H]1CCN(CC3CCOCC3)C1)cn2-c1ccc(F)cc1[S@](=N)(=O)C(C)C` (single isomer, unassigned) [Compound 78b], the figures for the IC50 (in assay [1]; in the assay with MEIS1 mRNA expression) were 0.552 nM and 361 nM, respectively.
On to `CCN(C(=O)c1cc(F)ccc1-n1cc(C[C@@H]2CCN(CC3CCNC(=O)CC3)C2)c2c(C)cncc21)C(C)C` (mixture of isomers) [Compound 254], for which the concentration for half-maximal inhibition (IC50) in assay [1] is 0.071 nM; with MEIS1 mRNA expression (Homo sapiens, MOLM-14, 48 h), 19 nM.
Taken in the same sequence, the figures for `Cc1cncc2c1c(CC1CN([C@@H](C(C)C)[C@H]3C[C@H](N4CCN(S(C)(=O)=O)CC4)C3)C1)cn2-c1ccc(F)cc1C(=O)N(C)C(C)C` (single isomer, unassigned) [Compound 34b] were 0.092 nM and 25 nM.
For `Cc1cncc2c1c(C[C@@H]1CCN(CC3CCOCC3)C1)cn2-c1ccc(F)cc1[S@](=N)(=O)C(C)C` (single isomer, unassigned) [Compound 78a] the same measures were 1.22 nM and around 690 nM.
For `Cc1cncc2c1c(CC1CN(CC3CCOCC3)C1)cn2-c1ccc(F)cc1C(=O)N(C)[C@H]1C[C@@H](O)C1` [Compound 274] the same measures were 2.42 nM and above 1000 nM.
Regarding `Cc1cncc2c1c(C[C@@H]1CCN(C[C@H]3CC[C@H](C(=O)N4CCC4)CC3)C1)cn2-c1ccc(F)cc1C(=O)N(C)C(C)C` [Compound 179], the IC50 in assay [1] came out at 0.405 nM; in the assay on MEIS1 mRNA expression (Homo sapiens, MOLM-14, 48 h) it was 259 nM.
As to `Cc1cncc2c1c(C=C1CCN(C)C1)cn2-c1ccc(F)cc1C(=O)N(C)C(C)C` (single isomer, unassigned) [Compound 524a], the IC50 came to 19 nM in assay [1] and 2560 nM with MEIS1 mRNA expression.
Regarding `Cc1cncc2c1c(CC1CN(CC3(C)CCN(C(N)=O)CC3)C1)cn2-c1ccc(F)cc1C(=O)N(C)C(C)C` [Compound 219], the concentration for half-maximal inhibition (IC50) in assay [1] came out at 0.039 nM; in the assay with MEIS1 mRNA expression (Homo sapiens, MOLM-14, 48 h), 32 nM.
Taken in the same sequence, the figures for `Cc1cncc2c1c(CC1CN(CC3CCCOC3)C1)cn2-c1ccc(F)cc1C(=O)N(C)C(C)C` (centres unmarked) [Compound 289] were 0.055 nM and 31 nM.
For `Cc1cncc2c1c(C[C@@H]1CCN(C(CCCN3CCC(S(C)(=O)=O)CC3)C(C)C)C1)cn2-c1ccc(F)cc1C(=O)N(C)C(C)C` (mixture of isomers) [Compound 10] the same measures were 0.021 nM and 17 nM.
On to `CC(=O)N1CC2CC1CC2N1CC[C@@H](Cc2cn(-c3ccc(F)cc3C(=O)N(C)C(C)C)c3cncc(C)c23)C1` (some centres unmarked) [Compound 223], for which the concentration for half-maximal inhibition (IC50) in assay [1] worked out at 0.239 nM; in the assay with MEIS1 mRNA expression (Homo sapiens, MOLM-14, 48 h), 279 nM.
For `CC(=O)N1CCC(C)(CN2CC[C@@H](Cc3cn(-c4ccc(F)cc4C(=O)N(C[C@H](C)O)C(C)C)c4cncc(C)c34)C2)CC1` [Compound 338] the same measures were 0.185 nM and 37 nM.
With `CC(=O)N1CCCC(N2CC[C@@H](Cc3cn(-c4ccc(F)cc4C(=O)N(C)C(C)C)c4cncc(C)c34)C2)C1` (mixture of isomers) [Compound 215], the half-maximal inhibitory concentration (IC50) was determined as 0.291 nM in assay [1] and 299 nM with MEIS1 mRNA expression (Homo sapiens, MOLM-14, 48 h).
For `CCC([C@H]1C[C@@H](N2C[C@H]3CN(C(C)=O)C[C@@H]3C2)C1)N1CC[C@H](Cc2cn(-c3ccc(F)cc3C(=O)N(C)C(C)C)c3cncc(C)c23)C1` (mixture of isomers) [Compound 23] the same measures were 0.07 nM and 7 nM.
Turning to `Cc1cncc2c1c(C[C@H]1CCN(CC3CCN(C(=O)C(C)(C)O)CC3)C1)cn2-c1ccc(F)cc1C(=O)N(C)C(C)C` [Compound 244], the IC50 in assay [1] was determined as 0.101 nM; with MEIS1 mRNA expression (Homo sapiens, MOLM-14, 48 h), 51 nM.
Taken in the same sequence, the figures for `Cc1cncc2c1c(C[C@H]1CCN(CC3CCOCC3)C1)cn2-c1ccc(F)cc1[S@@](=N)(=O)C(C)C` (single isomer, unassigned) [Compound 78d] were 0.875 nM and 538 nM.
Taken in the same sequence, the figures for `CC(=O)N1CCC(CN2CC[C@H](Cc3cn(-c4ccc(F)cc4S4(=O)=NCCC4)c4cncc(C)c34)C2)CC1` (mixture of isomers) [Compound 224] were 8.66 nM and around 3880 nM.
For the compound `CCC(C1CCN(C(C)=O)CC1)N1CC[C@@H](Cc2cn(-c3ccc(F)cc3C(=O)N(C)C(C)C)c3cncc(C)c23)C1` (single isomer, unassigned) [Compound 246], the IC50 stood at 0.057 nM in assay [1] and 16 nM in the assay on MEIS1 mRNA expression.
For `Cc1cncc2c1c(CC1CCN(C[C@H]3CCC(=O)N3)CC1)cn2-c1ccc(F)cc1C(=O)N(C)C(C)C` [Compound 110], the IC50 is 1.8 nM in assay [1] and around 1070 nM in the assay with MEIS1 mRNA expression (Homo sapiens, MOLM-14, 48 h).
For `Cc1cncc2c1c(C[C@@H]1CCN([C@@H](C)C3CCOCC3)C1)cn2-c1ccc(F)cc1[S@@](=N)(=O)C(C)C` (single isomer, unassigned) [Compound 182b], the IC50 in assay [1] was 3.1 nM; with MEIS1 mRNA expression (Homo sapiens, MOLM-14, 48 h), 1770 nM.
In the case of `Cc1cncc2c1c(C[C@@H]1CCN(CC3CCOCC3)C1)cn2-c1ccc(F)cc1C(=O)N1CCCC1C(C)O` (single isomer, unassigned) [Compound 363b], the IC50 in assay [1] was 0.093 nM; in the assay with MEIS1 mRNA expression, around 174 nM.
As to `CCc1cncc2c1c(C[C@H]1CCN(CC3CCN(C(C)=O)CC3)C1)cn2-c1ccc(F)cc1C(=O)N(C)C(C)C` [Compound 260], the concentration for half-maximal inhibition (IC50) is 0.042 nM in assay [1] and around 27.6 nM in the assay on MEIS1 mRNA expression (Homo sapiens, MOLM-14, 48 h).
Taken in the same sequence, the figures for `CCC([C@H]1C[C@@H](N2C[C@H]3CN(C(C)=O)C[C@@H]3C2)C1)N1CC[C@@H](Cc2cn(-c3ccc(F)cc3C(=O)N(C)C(C)C)c3cncc(C)c23)C1` (mixture of isomers) [Compound 22] were 0.024 nM and around 11 nM.
Taken in the same sequence, the figures for `CCC([C@H]1C[C@@H](N2C[C@H]3CN(C(C)=O)C[C@@H]3C2)C1)N1CC[C@@H](Cc2cn(-c3ccc(F)cc3C(=O)N(C)C(C)C)c3cncc(Cl)c23)C1` (some centres unmarked) [Compound 26a] were 0.036 nM and 7 nM.
`CNC(=O)c1cccc(CN2CC(Cc3cn(-c4ccc(F)cc4C(=O)N(C)C(C)C)c4cncc(C)c34)C2)c1` [Compound 283]: the IC50 in assay [1] stood at 0.61 nM; in the assay with MEIS1 mRNA expression (Homo sapiens, MOLM-14, 48 h), 440 nM.
Taken in the same sequence, the figures for `CC(=O)N1CCC(CN2CC[C@@H](Cc3cn(-c4ccc(F)cc4C(=O)N(C(C)C)C(C)C)c4cncc(C)c34)C2)CC1` [Compound 258] were 0.021 nM and 11 nM.
Take `Cc1cncc2c1c(CC1CNC(CC3CCOCC3)C1)cn2-c1ccc(F)cc1C(=O)N(C)C(C)C` (single isomer, unassigned) [Compound 134a]: the concentration for half-maximal inhibition (IC50) in assay [1] amounted to 0.032 nM; in the assay with MEIS1 mRNA expression, 86 nM.
